This assay is described as follows: cytotoxicity of cultured cells, dose response, cytotoxicity control for LYPLA1/LYPLA2 dual inhibitor project, cell-based, absorbance, serum-free or FCS media (AID 493161). As to conditions: absorbance cell survival.

Activity calls are given as the source filed them. No rule for the calls is given here. Bounds are passed on as bounds.

For the compound `CCC1CCCCN1C(=O)n1ncc(C(O)(c2ccccc2)c2ccccc2)n1` (stereo unspecified), the CC50 (as a rule, the concentration at which the toxic effect on the cells reaches its halfway point) is > 50 µM (inactive) (serum-free media) and > 50 µM (inactive) (with FCS).
As to `CC(C)(O)c1cnn(C(=O)N2CCC(C(C)(C)C)CC2)n1`, the CC50 was greater than 9 µM (serum-free media) and > 27 µM (inactive) (with FCS).
For `CC(C)(C)C1CCN(C(=O)n2ncc(C(O)(c3ccccc3)c3ccccc3)n2)CC1`, the CC50 by setting is: (serum-free media) > 35 µM (inactive); (with FCS) > 50 µM (inactive).
